Test results published in ChEMBL document CHEMBL4393656, “Cationic biaryl 1,2,3-triazolyl peptidomimetic amphiphiles targeting Clostridioides (Clostridium) difficile: Synthesis, antibacterial evaluation and an in vivo C. difficile infection model” (Eur J Med Chem, 2019).
Active and inactive are the calls of the source. The calls are words filed in the database; no cut-off is given here.

Columns and labels:
Clostridioides difficile [1] = assay: (§1) Antibacterial activity against Clostridium difficile ribotype 027 M7404 spores infected in antibiotic cocktail-induced CDI C57BL/6J mouse model assessed as decrease in diarrhea at 100 mg/kg administered via oral gavage for every 12 hrs starting from 6 hrs post-infection and measured at 24 hrs post infection; format: functional, organism-based; settings: genomovar ribotype 027 M7404
Clostridioides difficile [2] = assay: as §1, with “protection against bacterial infection” for “decrease in diarrhea”, “2 days” for “24 hrs”; format: functional, organism-based; settings: genomovar ribotype 027 M7404
Clostridioides difficile [3] = assay: as §1, with “weight loss” for “diarrhea”; format: functional, organism-based; settings: genomovar ribotype 027 M7404
Staphylococcus aureus [4] = assay: Growth inhibition of Staphylococcus aureus ATCC 29213 incubated in MHB broth for 24 hrs; format: organism-based
Enterococcus faecalis = assay: Growth inhibition of Enterococcus faecalis ATCC 29212 incubated in MHB broth for 24 hrs; format: organism-based
Streptococcus pneumoniae = assay: Growth inhibition of Streptococcus pneumoniae ATCC 49619 incubated in MHB medium with lysed horse blood and 5% CO2 for 24 hrs; format: organism-based
Clostridioides difficile [5] = assay: Antibacterial activity against Clostridium difficile ATCC 700057 incubated for 2 to 4 hrs in pre-reduced brucella broth supplemented with haemin/vitamin K and further incubation in anaerobic condition for 48 hrs; format: functional
Clostridioides difficile [6] = assay: Antibacterial activity against Clostridium difficile NSW132 RT027 incubated for 2 to 4 hrs in pre-reduced brucella broth supplemented with haemin/vitamin K and further incubation in anaerobic condition for 48 hrs; format: functional
Escherichia coli [7] = assay: Growth inhibition of Escherichia coli ATCC 25922 incubated for 18 hrs; format: organism-based
Klebsiella pneumoniae = assay: Growth inhibition of Klebsiella pneumoniae ATCC 700603 incubated for 18 hrs; format: organism-based
Acinetobacter baumannii = assay: Growth inhibition of Acinetobacter baumannii ATCC 19606 incubated for 18 hrs without shaking by absorbance based monochromator plate reader analysis; format: organism-based, ATCC 19606 = CIP 70.34 = JCM 6841; settings: in vitro
Pseudomonas aeruginosa = assay: Growth inhibition of Pseudomonas aeruginosa ATCC 27853 incubated for 18 hrs; format: organism-based
Staphylococcus aureus [8] = assay: Growth inhibition of methicillin-resistant Staphylococcus aureus ATCC 43300 incubated for 18 hrs; format: organism-based
[9] = Cytotoxicity against HEK293 cells assessed as decrease in cell viability after 20 hrs by resazurin dye-based fluorescence assay; settings: human
[10] = Haemolytic activity in sheep erythrocytes assessed as induction of haemolysis at 5 ug/ml incubated for 2 hrs relative to control; format: cell-based, Ovis aries, Erythrocyte; settings: read-out: Activity
[11] = Haemolytic activity in sheep erythrocytes assessed as induction of haemolysis at 50 ug/ml incubated for 2 hrs relative to control; format: cell-based, Ovis aries, Erythrocyte; settings: read-out: Activity
Clostridioides difficile [12] = assay: as §1, with “physiological appearance score” for “diarrhea”; format: functional, organism-based; settings: genomovar ribotype 027 M7404
Clostridioides difficile [13] = assay: Antibacterial activity against Clostridium difficile ribotype 027 M7404; format: functional; settings: genomovar ribotype 027 M7404
[14] = Aqueous solubility of the DMSO-dissolved compound in >200 uL water at 5 mg; format: physicochemical; settings: buffer
Escherichia coli [15] = assay: Induction of cytoplasmic membrane depolarization in Escherichia coli NCTC 10418 at 4 ug/ml by DiSC3-5 dye based fluorescence method; format: organism-based
Escherichia coli [16] = assay: Induction of cytoplasmic membrane permeabilization in Escherichia coli NCTC 10418 at 4 ug/ml by propidium iodide staining based fluorescence method; format: organism-based
Clostridioides difficile [17] = assay: as §1, with “decrease in fecal spore load at 100” for “decrease in diarrhea at 100”, “post infection by heat shock based plating method” for “post infection”; format: functional, organism-based; settings: genomovar ribotype 027 M7404
Staphylococcus aureus [18] = assay: Induction of cytoplasmic membrane depolarization in Staphylococcus aureus ATCC 29213 at 32 ug/ml by DiSC3-5 dye based fluorescence method; format: organism-based
Escherichia coli [19] = assay: Induction of cytoplasmic membrane depolarization in Escherichia coli NCTC 10418 at 64 ug/ml by DiSC3-5 dye based fluorescence method; format: organism-based
Staphylococcus aureus [20] = assay: Induction of cytoplasmic membrane permeabilization in Staphylococcus aureus ATCC 29213 at 32 ug/ml by propidium iodide staining based fluorescence method relative to control
Escherichia coli [21] = assay: Induction of cytoplasmic membrane permeabilization in Escherichia coli NCTC 10418 at 32 ug/ml by propidium iodide staining based fluorescence method; format: organism-based
Staphylococcus aureus [22] = assay: Induction of cytoplasmic membrane permeabilization in Staphylococcus aureus ATCC 29213 at 32 ug/ml measured after 10 mins by propidium iodide staining based fluorescence method; format: organism-based
Clostridioides difficile [23] = assay: as §1, with “assessed as survival rate at 100” for “assessed as decrease in diarrhea at 100”, “post infection (reference value: 0%)” for “post infection”; format: functional, genomovar ribotype 027 M7404
[24] = Drug accumulation in blood of antibiotic cocktail-induced CDI C57BL/6J mouse model infected with Clostridium difficile ribotype 027 M7404 spores at 100 mg/kg administered via oral gavage for every 12 hrs starting from 6 hrs post-infection by LRMS analysis; format: ADME, organism-based; settings: in vivo
[25] = Drug accumulation in feces of antibiotic cocktail-induced CDI C57BL/6J mouse model infected with Clostridium difficile ribotype 027 M7404 spores at 100 mg/kg administered via oral gavage for every 12 hrs starting from 6 hrs post-infection by LRMS analysis; format: ADME, organism-based; settings: in vivo
[26] = Drug localization in blood of C57BL/6J mouse measured after 2 hr by LRMS analysis; format: ADME, tissue-based
[27] = Solubility of the compound in 10% DMSO solution; format: physicochemical
Staphylococcus aureus [28] = assay: Induction of cytoplasmic membrane permeabilization in Staphylococcus aureus ATCC 29213 at 32 ug/ml measured after 40 mins by propidium iodide staining based fluorescence method; format: organism-based

CC(C)CCOc1ccc2ccccc2c1-c1c(OCC(=O)N[C@H](CCCNC(=N)N)C(=O)NCc2ccccc2)ccc2ccccc12.Cl
Activity (Clostridioides difficile [1]): inactive | Activity (Clostridioides difficile [2]): inactive | Activity (Clostridioides difficile [3]): inactive | MIC (Staphylococcus aureus [4]): 2 µg/mL | MIC (Enterococcus faecalis): 2 µg/mL | MIC (Streptococcus pneumoniae): 2 µg/mL | MIC (Clostridioides difficile [5]): 8 µg/mL | MIC (Clostridioides difficile [6]): 8 µg/mL | MIC (Escherichia coli [7]): > 32 µg/mL | MIC (Klebsiella pneumoniae): > 32 µg/mL | MIC (Acinetobacter baumannii): > 32 µg/mL | MIC (Pseudomonas aeruginosa): > 32 µg/mL | MIC (Staphylococcus aureus [8]): 4 µg/mL | CC50 at 20 h [9]: > 32 µg/mL | hemolysis at 2 h, 5 ug/ml [10]: 0.3% | hemolysis at 2 h, 50 ug/ml [11]: 100% | Activity (Clostridioides difficile [12]): inactive | MIC (Clostridioides difficile [13]): 2 µg/mL

CC(C)CCOc1ccccc1-c1ccccc1OCc1cn([C@H](CCCCN)C(=O)NCC2CCCCC2)nn1.Cl
MIC (Staphylococcus aureus [4]): 8 µg/mL | MIC (Enterococcus faecalis): 8 µg/mL | MIC (Streptococcus pneumoniae): 8 µg/mL | MIC (Clostridioides difficile [5]): 16 µg/mL | MIC (Clostridioides difficile [6]): 32 µg/mL | MIC (Escherichia coli [7]): > 32 µg/mL | MIC (Klebsiella pneumoniae): > 32 µg/mL | MIC (Acinetobacter baumannii): 32 µg/mL | MIC (Pseudomonas aeruginosa): > 32 µg/mL | MIC (Staphylococcus aureus [8]): 8 µg/mL | CC50 at 20 h [9]: 5.6 µg/mL | hemolysis at 2 h, 5 ug/ml [10]: 0% | hemolysis at 2 h, 50 ug/ml [11]: 98% | solubility [14]: Soluble

COLISTIN
Activity (Escherichia coli [15]): Active | Activity (Escherichia coli [16]): Active

CC(C)CCOc1ccccc1-c1ccccc1OCc1cn([C@H](CCCNC(=N)N)C(=O)NC2CCCCC2)nn1.Cl
Activity (Clostridioides difficile [1]): Active | Activity (Clostridioides difficile [2]): inactive | Activity (Clostridioides difficile [3]): inactive | MIC (Staphylococcus aureus [4]): 4 µg/mL | MIC (Enterococcus faecalis): 4 µg/mL | MIC (Streptococcus pneumoniae): 4 µg/mL | MIC (Clostridioides difficile [5]): 8 µg/mL | MIC (Clostridioides difficile [6]): 16 µg/mL | MIC (Escherichia coli [7]): > 32 µg/mL | MIC (Klebsiella pneumoniae): > 32 µg/mL | MIC (Acinetobacter baumannii): 32 µg/mL | MIC (Pseudomonas aeruginosa): > 32 µg/mL | MIC (Staphylococcus aureus [8]): 4 µg/mL | CC50 at 20 h [9]: 19.7 µg/mL | hemolysis at 2 h, 5 ug/ml [10]: 1.4% | hemolysis at 2 h, 50 ug/ml [11]: 81.8% | Activity (Clostridioides difficile [17]): Active | Activity (Staphylococcus aureus [18]): Active | Activity (Escherichia coli [19]): Active | Activity (Staphylococcus aureus [20]): >500% | Activity (Escherichia coli [21]): Active | Activity (Staphylococcus aureus [22]): Active

CC(C)CCOc1ccc2ccccc2c1-c1c(OCc2cn(C[C@@H](CCCCN)NC(=O)[C@@H](CCCNC(=N)N)NC(=O)CCc3ccccc3)nn2)ccc2ccccc12.Cl.Cl
Activity (Clostridioides difficile [1]): Active | MIC (Clostridioides difficile [5]): 8 µg/mL | Activity (Clostridioides difficile [23]): 50% | Drug uptake [24]: Not Active | Drug uptake [25]: Active | Drug uptake [26]: Not Active

CC(C)CCOc1ccc2ccccc2c1-c1c(OCC(=O)N[C@H](CCCNC(=N)N)Cn2cc(-c3ccccc3)nn2)ccc2ccccc12.Cl
MIC (Clostridioides difficile [5]): 8 µg/mL | hemolysis at 2 h, 50 ug/ml [11]: 86% | solubility [27]: Insoluble

CC(C)CCOc1ccccc1-c1ccccc1OCc1cn([C@H](CCCCN)C(=O)N[C@H](CCCNC(=N)N)Cn2cc(CCc3ccccc3)nn2)nn1.Cl.Cl
Activity (Staphylococcus aureus [28]): Active | MIC (Staphylococcus aureus [4]): 4 µg/mL | MIC (Enterococcus faecalis): 8 µg/mL | MIC (Streptococcus pneumoniae): 8 µg/mL | MIC (Clostridioides difficile [5]): 16 µg/mL | MIC (Clostridioides difficile [6]): 16 µg/mL | MIC (Escherichia coli [7]): 8 µg/mL | MIC (Klebsiella pneumoniae): 16 µg/mL | MIC (Acinetobacter baumannii): 8 µg/mL | MIC (Pseudomonas aeruginosa): 8 µg/mL | MIC (Staphylococcus aureus [8]): 2 µg/mL | CC50 at 20 h [9]: 16.4 µg/mL | hemolysis at 2 h, 5 ug/ml [10]: 1.4% | hemolysis at 2 h, 50 ug/ml [11]: 12.6% | Activity (Staphylococcus aureus [18]): Active | Activity (Escherichia coli [19]): Active | Activity (Staphylococcus aureus [20]): >500% | Activity (Escherichia coli [21]): Active
